According to paper PMC6747015, “Structure–function study of a novel inhibitor of the casein kinase 1 family in Arabidopsis thaliana” (Plant Direct, 2019):

How the values were obtained:
[1] = tested on: Kinase AT4G08800; test: AMI‐329 bead binding with AMI‐331 competitor, kinase AT4G08800; parameters: species or system Arabidopsis thaliana
Procedure: (§1) Screening for proteins bound to AMI‐329 beads was done by a method similar to what has previously been described (Uehara et al., 2019). Briefly, two‐week‐old seedlings grown under LD conditions were harvested at time points ZT2, ZT6, ZT9, and ZT17, and stored at −80°C. Proteins from the frozen plant samples were incubated with 0, 5, or 50 µM of AMI‐331 at 4°C for 30 min with rotary mixing. Two technical replicates were used for each experiment. PBS‐washed AMI‐329 beads were added to the protein samples and gently rotated at 4°C for 1 hr. AMI‐329 bead resins were washed with bead buffer (Uehara et al., 2019) six times. The washed resins were suspended in SDS sample buffer and boiled for 8 min. Protein samples were in‐gel‐digested as previously described (Uehara et al., 2019). Peptides were analyzed with a Q Exactive hybrid quadrupole‐orbitrap mass spectrometer (Thermo Fisher Scientific), as described previously (Uehara et al., 2019). […]
(§2) However, another possible mechanism for the strong AMI‐331 biological activity in vivo is that it targets proteins other than the CK1 family for period lengthening. […] It is noteworthy that kinase AT4G08800 is very similar to the CKL family, but the ATP‐binding pocket of mammalian CK1 as determined by its crystal structure (Shinohara et al., 2017) was absent from AT4G08800, as shown in an Araport 11 model (https://www.araport.org). […]

[2] = biological target: T1, CKL3 (AT4G28880) (Arabidopsis thaliana, UniProt Q93Z18); test: AMI‐329 bead binding with AMI‐331 competitor, CKL3
T1 construct: from tissue; host or cells: Arabidopsis seedlings, two weeks old
Procedure: as §1, §2

[3] = biological target: T2, Membrane protein AT5G40670 (Arabidopsis thaliana, UniProt P57758); test: AMI‐329 bead binding with AMI‐331 competitor, membrane protein AT5G40670
T2 construct: from tissue; host or cells: Arabidopsis seedlings, two weeks old
Procedure: as §1, §2

[4] = biological target: T3, RNA‐binding AT3G15010 (Arabidopsis thaliana, UniProt Q9LKA4); test: AMI‐329 bead binding with AMI‐331 competitor, RNA‐binding protein AT3G15010
T3 construct: Proteins from the frozen plant samples were incubated with 0, 5, or 50 µM of AMI‐331; from tissue; host or cells: two-week-old Arabidopsis seedlings (protein lysate)
Procedure: as §1, §2

[5] = biological target: T4, CKL6 (AT4G28540) (Arabidopsis thaliana, UniProt Q8LPJ1); test: AMI‐329 bead binding with AMI‐331 competitor, CKL6
T4 construct: from tissue; host or cells: Arabidopsis seedlings, two weeks old
Procedure: as §1, §2

[6] = biological target: T5, CKL1 (AT4G26100) (Arabidopsis thaliana, UniProt P42158); test: AMI‐329 bead binding with AMI‐331 competitor, CKL1
T5 construct: from tissue; host or cells: Arabidopsis seedlings, two weeks old
Procedure: as §1, §2

[7] = biological target: T6, NRPB3 (AT2G15430) (Arabidopsis thaliana, UniProt Q39211); test: AMI‐329 bead binding with AMI‐331 competitor, NRPB3
T6 construct: from tissue; host or cells: Arabidopsis seedlings, two weeks old
Procedure: as §1, §2

[8] = biological target: T7, CKL7 (AT5G44100) (Arabidopsis thaliana, UniProt Q9FFH8); test: AMI‐329 bead binding with AMI‐331 competitor, CKL7
T7 construct: from tissue; host or cells: Arabidopsis seedlings, two weeks old
Procedure: as §1, §2

[9] = biological target: T8, CKL4 (AT4G28860) (Arabidopsis thaliana, UniProt Q8LPI7); test: AMI‐329 bead binding with AMI‐331 competitor, CKL4
T8 construct: from tissue; host or cells: Arabidopsis seedlings, two weeks old
Procedure: as §1, §2

[10] = biological target: T9, CKL5 (AT2G19470) (Arabidopsis thaliana, UniProt Q9ZUP4); test: AMI‐329 bead binding with AMI‐331 competitor, CKL5
T9 construct: from tissue; host or cells: Arabidopsis seedlings, two weeks old
Procedure: as §1, §2

[11] = biological target: T10, LUP1 (AT1G78970) (Arabidopsis thaliana, UniProt Q9C5M3); test: AMI‐329 bead binding with AMI‐331 competitor, LUP1
T10 construct: from tissue; host or cells: Arabidopsis seedlings, two weeks old
Procedure: as §1, §2

T3 sequence (Q9LKA4 whole entry): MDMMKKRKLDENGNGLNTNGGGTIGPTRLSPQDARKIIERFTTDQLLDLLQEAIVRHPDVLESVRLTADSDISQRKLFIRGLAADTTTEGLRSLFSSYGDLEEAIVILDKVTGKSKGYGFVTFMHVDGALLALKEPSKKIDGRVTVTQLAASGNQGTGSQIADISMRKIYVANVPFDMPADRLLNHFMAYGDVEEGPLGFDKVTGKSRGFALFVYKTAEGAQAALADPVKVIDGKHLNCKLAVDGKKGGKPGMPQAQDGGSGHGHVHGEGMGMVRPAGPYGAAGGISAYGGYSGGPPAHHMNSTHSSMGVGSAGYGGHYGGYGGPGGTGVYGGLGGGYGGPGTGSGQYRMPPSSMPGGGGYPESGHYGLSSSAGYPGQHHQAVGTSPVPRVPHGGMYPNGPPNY
T6 sequence (Q39211 whole entry): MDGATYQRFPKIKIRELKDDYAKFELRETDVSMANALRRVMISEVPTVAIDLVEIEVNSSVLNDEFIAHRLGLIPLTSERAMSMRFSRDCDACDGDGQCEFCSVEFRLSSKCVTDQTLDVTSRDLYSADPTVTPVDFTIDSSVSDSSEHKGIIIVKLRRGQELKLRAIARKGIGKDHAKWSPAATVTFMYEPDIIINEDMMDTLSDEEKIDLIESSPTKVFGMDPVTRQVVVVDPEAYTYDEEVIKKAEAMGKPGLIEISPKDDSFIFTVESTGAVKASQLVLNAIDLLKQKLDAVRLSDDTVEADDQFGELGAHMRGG
T7 sequence (Q9FFH8 whole entry): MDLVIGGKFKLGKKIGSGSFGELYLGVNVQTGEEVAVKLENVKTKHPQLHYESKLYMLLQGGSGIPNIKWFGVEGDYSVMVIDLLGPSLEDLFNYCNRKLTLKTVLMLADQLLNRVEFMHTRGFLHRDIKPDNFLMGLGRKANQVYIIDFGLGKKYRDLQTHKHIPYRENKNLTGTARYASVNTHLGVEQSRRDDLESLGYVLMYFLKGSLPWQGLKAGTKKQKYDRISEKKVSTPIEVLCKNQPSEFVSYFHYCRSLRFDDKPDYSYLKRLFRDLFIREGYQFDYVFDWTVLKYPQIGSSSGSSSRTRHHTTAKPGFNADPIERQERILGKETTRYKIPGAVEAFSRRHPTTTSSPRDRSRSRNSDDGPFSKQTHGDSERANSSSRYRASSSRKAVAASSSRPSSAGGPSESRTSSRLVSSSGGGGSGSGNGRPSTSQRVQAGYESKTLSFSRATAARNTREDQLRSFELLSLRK
T9 sequence (Q9ZUP4 whole entry): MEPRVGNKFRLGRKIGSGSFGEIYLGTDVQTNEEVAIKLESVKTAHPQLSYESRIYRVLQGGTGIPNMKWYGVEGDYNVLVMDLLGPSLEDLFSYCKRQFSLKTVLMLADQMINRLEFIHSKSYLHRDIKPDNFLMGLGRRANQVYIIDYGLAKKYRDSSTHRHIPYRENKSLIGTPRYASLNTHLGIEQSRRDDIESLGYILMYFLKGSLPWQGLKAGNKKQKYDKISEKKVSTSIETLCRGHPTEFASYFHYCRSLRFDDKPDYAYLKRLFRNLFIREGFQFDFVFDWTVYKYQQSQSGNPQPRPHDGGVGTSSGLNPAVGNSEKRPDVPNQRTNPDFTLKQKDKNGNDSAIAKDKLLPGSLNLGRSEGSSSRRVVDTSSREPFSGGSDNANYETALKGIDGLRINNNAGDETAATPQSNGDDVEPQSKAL
T2 sequence (P57758 whole entry): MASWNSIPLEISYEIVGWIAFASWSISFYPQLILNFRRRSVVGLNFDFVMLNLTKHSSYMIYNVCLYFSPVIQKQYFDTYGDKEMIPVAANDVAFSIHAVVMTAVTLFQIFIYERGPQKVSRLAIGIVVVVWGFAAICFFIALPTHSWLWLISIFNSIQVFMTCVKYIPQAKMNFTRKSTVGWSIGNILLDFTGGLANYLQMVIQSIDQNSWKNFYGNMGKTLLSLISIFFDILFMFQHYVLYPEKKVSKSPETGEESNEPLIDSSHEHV
T10 sequence (Q9C5M3 whole entry): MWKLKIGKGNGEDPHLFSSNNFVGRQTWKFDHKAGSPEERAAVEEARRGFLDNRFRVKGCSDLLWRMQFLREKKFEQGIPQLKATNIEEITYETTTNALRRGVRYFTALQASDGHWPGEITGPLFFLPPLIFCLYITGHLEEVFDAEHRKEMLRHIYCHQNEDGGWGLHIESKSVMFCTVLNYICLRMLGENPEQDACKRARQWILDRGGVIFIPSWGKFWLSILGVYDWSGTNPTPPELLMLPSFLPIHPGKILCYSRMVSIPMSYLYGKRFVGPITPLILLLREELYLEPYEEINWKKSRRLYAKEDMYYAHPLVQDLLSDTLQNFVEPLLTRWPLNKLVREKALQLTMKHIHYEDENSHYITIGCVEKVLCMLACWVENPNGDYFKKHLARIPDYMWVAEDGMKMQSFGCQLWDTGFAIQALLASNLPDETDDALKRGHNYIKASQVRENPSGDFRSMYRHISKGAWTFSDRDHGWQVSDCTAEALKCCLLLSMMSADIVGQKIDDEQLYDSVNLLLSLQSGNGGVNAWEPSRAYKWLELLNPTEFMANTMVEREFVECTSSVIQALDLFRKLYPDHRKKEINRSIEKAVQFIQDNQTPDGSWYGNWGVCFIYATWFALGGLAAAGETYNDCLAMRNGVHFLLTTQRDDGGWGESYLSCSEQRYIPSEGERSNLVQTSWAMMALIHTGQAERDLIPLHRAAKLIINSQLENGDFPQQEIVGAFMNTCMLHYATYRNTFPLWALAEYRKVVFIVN
T5 sequence (P42158 whole entry): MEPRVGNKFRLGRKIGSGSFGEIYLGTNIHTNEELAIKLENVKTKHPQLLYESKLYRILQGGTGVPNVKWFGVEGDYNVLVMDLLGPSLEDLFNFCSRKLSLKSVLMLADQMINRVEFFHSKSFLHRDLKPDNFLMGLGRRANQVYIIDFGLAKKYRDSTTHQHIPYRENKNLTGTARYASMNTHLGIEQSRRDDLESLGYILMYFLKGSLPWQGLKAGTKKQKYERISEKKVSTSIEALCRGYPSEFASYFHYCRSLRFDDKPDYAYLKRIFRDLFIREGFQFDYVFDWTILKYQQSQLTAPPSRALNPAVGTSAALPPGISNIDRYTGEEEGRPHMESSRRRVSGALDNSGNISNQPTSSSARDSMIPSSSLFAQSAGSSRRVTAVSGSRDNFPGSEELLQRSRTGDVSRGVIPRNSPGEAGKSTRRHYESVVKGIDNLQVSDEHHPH
T4 sequence (Q8LPJ1 whole entry): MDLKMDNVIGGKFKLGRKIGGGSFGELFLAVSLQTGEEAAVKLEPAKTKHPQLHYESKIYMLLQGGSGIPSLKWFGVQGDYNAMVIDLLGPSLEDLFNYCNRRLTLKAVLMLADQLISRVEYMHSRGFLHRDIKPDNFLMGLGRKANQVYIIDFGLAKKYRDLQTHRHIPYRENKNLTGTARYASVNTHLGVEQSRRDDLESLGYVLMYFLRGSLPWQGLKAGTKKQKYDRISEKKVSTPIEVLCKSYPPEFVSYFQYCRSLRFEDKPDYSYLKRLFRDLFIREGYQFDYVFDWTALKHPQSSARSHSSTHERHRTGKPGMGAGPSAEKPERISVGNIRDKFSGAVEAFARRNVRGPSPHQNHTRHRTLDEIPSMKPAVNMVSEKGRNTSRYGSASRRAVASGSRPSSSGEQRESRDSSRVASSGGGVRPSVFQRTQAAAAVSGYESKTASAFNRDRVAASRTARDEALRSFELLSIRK
T8 sequence (Q8LPI7 whole entry): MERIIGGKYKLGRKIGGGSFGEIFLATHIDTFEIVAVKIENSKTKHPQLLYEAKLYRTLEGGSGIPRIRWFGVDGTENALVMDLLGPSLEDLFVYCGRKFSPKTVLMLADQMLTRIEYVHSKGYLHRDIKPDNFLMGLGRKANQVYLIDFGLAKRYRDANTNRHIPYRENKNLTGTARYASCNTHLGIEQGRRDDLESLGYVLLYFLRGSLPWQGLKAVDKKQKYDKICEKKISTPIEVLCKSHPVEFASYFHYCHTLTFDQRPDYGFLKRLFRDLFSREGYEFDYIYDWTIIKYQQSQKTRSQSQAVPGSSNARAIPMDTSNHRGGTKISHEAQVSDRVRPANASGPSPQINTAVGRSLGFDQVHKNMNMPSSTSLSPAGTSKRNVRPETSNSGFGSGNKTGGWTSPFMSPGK
T1 sequence (Q93Z18 whole entry): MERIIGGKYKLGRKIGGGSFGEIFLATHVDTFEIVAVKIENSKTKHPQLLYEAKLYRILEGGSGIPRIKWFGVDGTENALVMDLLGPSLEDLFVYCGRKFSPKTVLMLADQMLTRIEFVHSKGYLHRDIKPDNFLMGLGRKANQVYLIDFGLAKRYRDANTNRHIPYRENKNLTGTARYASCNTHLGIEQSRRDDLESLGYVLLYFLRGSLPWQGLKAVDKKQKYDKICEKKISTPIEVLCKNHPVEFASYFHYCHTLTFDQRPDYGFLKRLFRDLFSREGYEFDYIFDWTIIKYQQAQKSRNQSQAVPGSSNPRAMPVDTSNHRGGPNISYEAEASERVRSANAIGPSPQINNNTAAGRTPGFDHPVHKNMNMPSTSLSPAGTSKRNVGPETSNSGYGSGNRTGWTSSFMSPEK

C#CCn1c2c(c(Br)c1-c1ccncc1)C(=O)NCC2.Cl [AMI‐331]
Spectra (PSMs) AMI‐329 beads bound ([1]; competitor AMI‐331 5 µM): 0 PSMs | Spectra (PSMs) AMI‐329 beads bound ([1]; competitor AMI‐331 50 µM): 0 PSMs | Spectra (PSMs) AMI‐329 beads bound ([2]; competitor AMI‐331 5 µM): 1 PSMs | Spectra (PSMs) AMI‐329 beads bound ([2]; competitor AMI‐331 50 µM): 0 PSMs | Spectra (PSMs) AMI‐329 beads bound ([3]; competitor AMI‐331 5 µM): 0 PSMs | Spectra (PSMs) AMI‐329 beads bound ([3]; competitor AMI‐331 50 µM): 0 PSMs | Spectra (PSMs) AMI‐329 beads bound ([4]; competitor AMI‐331 5 µM): 0 PSMs | Spectra (PSMs) AMI‐329 beads bound ([4]; competitor AMI‐331 50 µM): 0 PSMs | Spectra (PSMs) AMI‐329 beads bound ([5]; competitor AMI‐331 5 µM): 1 PSMs | Spectra (PSMs) AMI‐329 beads bound ([5]; competitor AMI‐331 50 µM): 0 PSMs | Spectra (PSMs) AMI‐329 beads bound ([6]; competitor AMI‐331 5 µM): 2 PSMs | Spectra (PSMs) AMI‐329 beads bound ([6]; competitor AMI‐331 50 µM): 0 PSMs | Spectra (PSMs) AMI‐329 beads bound ([7]; competitor AMI‐331 5 µM): 0 PSMs | Spectra (PSMs) AMI‐329 beads bound ([7]; competitor AMI‐331 50 µM): 0 PSMs | Spectra (PSMs) AMI‐329 beads bound ([8]; competitor AMI‐331 5 µM): 1 PSMs | Spectra (PSMs) AMI‐329 beads bound ([8]; competitor AMI‐331 50 µM): 0 PSMs | Spectra (PSMs) AMI‐329 beads bound ([9]; competitor AMI‐331 5 µM): 1 PSMs | Spectra (PSMs) AMI‐329 beads bound ([9]; competitor AMI‐331 50 µM): 0 PSMs | Spectra (PSMs) AMI‐329 beads bound ([10]; competitor AMI‐331 5 µM): 1 PSMs | Spectra (PSMs) AMI‐329 beads bound ([10]; competitor AMI‐331 50 µM): 0 PSMs | Spectra (PSMs) AMI‐329 beads bound ([11]; competitor AMI‐331 5 µM): 0 PSMs | Spectra (PSMs) AMI‐329 beads bound ([11]; competitor AMI‐331 50 µM): 0 PSMs
